# Measurements as given in US10953109B2, “Application of GPR45 gene” (FUDAN UNIVERSITY, priority 2015, dated 2021).
# “Also recorded” adds a separate entry of the source.
# Legend:
# GPR45 = assay: RNA interference of GPR45 in primary culture cells of hypothalamuses of wild type fetal mice, RT-PCR; assay type: cell-based; details: 10 pmol siRNA per well, transfection 72 h
# Description: […]
# For detection of POMC expression, primary cell RNA was extracted to perform reverse transcription to obtain cDNA, then real-time quantitative PCR detection was performed, and experiment steps were the same as embodiment 11. […]
# wild type mice = assay: MTII injected into third intraventricular of wild type mice; body weight and fat; assay type: in vivo
# Description: (§1) MTII is an agonist of MC3R/MC4R, can simulate a function of a POMC shorn product α-MSH and plays a role of suppressing appetite and promoting energy metabolism. […] When the mutant mice and wild type mice of control groups were injected with equal amounts of normal saline, the body weight was not influenced.
# GPR45^PB1/PB1 mice = assay: MTII injected daily into third intraventricular of adult GPR45 homozygote obese mice; body weight and fat; assay type: in vivo
# Description: as §1
# [1] = wild type mice injected with MTII, six days
# [2] = mutant mice, six days after administration, compared with normal saline control
Substance,expression amount of GPR45 decreased (GPR45) [%],expression amount of POMC decreased (GPR45) [%],weight of gonadal white adipose tissues decreased (wild type mice; [1]) [%],weight of interscapular brown adipose tissues increased (wild type mice; [1]) [%],weight of retroperitoneal white adipose tissues decreased (wild type mice; [1]) [%],"body weight decreased relative to the body weight before injection (wild type mice; wild type mice, six days after MTII was injected) [%]","body weight after three days after MTII was injected (GPR45^PB1/PB1 mice; GPR45^PB1/PB1 mice, three days)",fat content (FIG. 24B) (GPR45^PB1/PB1 mice; adult male GPR45 homozygote mice),"body weight (FIG. 24A) (GPR45^PB1/PB1 mice; adult male GPR45 homozygote mice, after six days)","increase of the body weight (GPR45^PB1/PB1 mice; daily injection, adult obese mice)",obesity caused by GPR45 mutations (GPR45^PB1/PB1 mice; intraventricular injection),"body weight decreased relative to the body weight before injection (GPR45^PB1/PB1 mice; mutant mice, six days after MTII was injected) [%]",weight of gonadal white adipose tissues decreased (GPR45^PB1/PB1 mice; [2]) [%],weight of interscapular brown adipose tissues decreased (GPR45^PB1/PB1 mice; [2]) [%],weight of retroperitoneal white adipose tissues decreased (GPR45^PB1/PB1 mice; [2]) [%]
"GPR45-siRNA: siRNA, sense 5′-CCGACAUCAUGCUGUCUUUAUTT-3′ (SEQ ID NO. 29), antisense 5′-AUAAAGACAGCAUGAUGUCGGTT-3′ (SEQ ID NO. 30) (chemistry not given here)",53.4,30.7,,,,,,,,,,,,,
melanotan-2 [MTII],,,44.1,0.4,50.9,1.8,reduced to the level of the body weight of the wild type mice,fat content decreases,body weight decreases,could be suppressed,obesity is suppressed; also recorded: effectively reverses the obesity,13.6,48.5,50.4,66.7
